One series deals with ZIKV replicon. Nature of the series: ZIKV replicon luminescence assay in Huh-7.5 replicon-containing cells. Format: cell-based, Zika virus. The note with it: Huh-7.5 ZIKV replicon cells, 48 h. As to the method: Error bars represent SD among 3 biological replicates.
Cultured Huh-7.5.1 cells and Huh-7.5 ZIKV replicon-containing cells (Xie 2016) were treated with various concentrations of CA or putative ZIKV replication inhibitor NITD-008 (Deng 2016) for 48 h. Cells were then washed with PBS and ViviRen™ Live Cell Substrate (Promega) was added to a final concentration of 30 μM. Following incubation for 2 min at room temperature, luminescence was measured. Curve fitting was performed in Igor Pro (WaveMetrics) using a sigmoidal fit algorithm (FIG. 5).

Series [1] has as its system ZIKV. Nature of the series: Time-of-addition study of ZIKV infection in A549 cells (plaque assay). The note with it: 250 nM CA; full lifecycle, pre-replication, post-replication; A549, MOI 1.0. It counts as cell-based, Zika virus. The method, then: Error bars represent SEM among 3 biological replicates. Significance was calculated by a 2-tailed unpaired Student's t-test. *, p<0.05.
Cultured A549 cells were inoculated with ZIKV for 1 h at MOI 1.0, and maintained for 2 d under different experimental conditions. For “Full lifecycle” 250 nM CA was added following the inoculation and maintained in the medium for 2 d; for “Pre-replication” 250 nM CA was added following the inoculation and maintained in the medium for 6 h, after which the cells were washed with PBS and the medium was changed; and for “Post-replication” 250 nM CA was added to the culture medium 12 hours post infection (hpi) and maintained until 24 hpi, after which the cells were washed with PBS and the medium was changed.

For another series, the system named is brain organoids. Nature of the series: CellTiter Glo 3D cell viability assay in brain organoids. It counts as cell-based. The note with it: 1 μM. The method, then: FIG. 19 is a plot showing toxicity results for brain organoids treated with 1 μM CA.
(§1) FIG. 18 is a plot showing the anti-ZIKV activity of cladoniamide A (incubation with 1 μM CA for 72 hours; 2 biological replicates, each with 4 organoids/well) using four brain organoid systems. There was a greater than 4-log reduction in extracellular ZIKV titer when treated with CA. […] FIGS. 20 and 21 show plots showing the anti-ZIKV activity of CA and CC (incubation with 10 μM CA or CC for 69 hours, MOI 1; 4 technical replicates as there were 4 organoids/[…]).

The subject of series [2] is ZIKV. Nature of the series: ZIKV viral dsRNA imaging (Cellomics ArrayScan VTI) in A549 cells. Format: cell-based, Zika virus. As to conditions: 15 μM, 1 h pre-treatment, MOI 1, 48 h.
Series [3] has as its system ZIKV. Nature of the series: Plaque assay (PFU) dose response, ZIKV-infected A549 cells. Format: cell-based. The note with it: Zika virus. As to the method:
Error bars represent SD among 2 biological replicates.
Cultured A549 cells were treated with various concentrations of CA or PF-429242 for 24 h before being washed with PBS and inoculated with ZIKV (ZIKV strain VR 1843, Puerto Rico, 2015; ATCC) at MOI 1.0 for 1 h. Following the removal of the inoculum, cells were incubated in fresh media for 2 d before the supernatant was collected, clarified, and secreted NS1 protein abundance was measured by an ELISA kit (BioFront Technologies) according to the manufacturer's instructions. Curve fitting was performed in Igor Pro (WaveMetrics) using a hyperbolic fit algorithm (FIG. 4; upper and middle plots) and IC50 and TI values obtained. IC50 and TI values were also obtained for CA via plaque assay (PFU; FIG. 4, lower plot). FIG. 4 (upper plot) is an ED50 curve for the PF inhibitor based on the detection of secreted Non-Structural protein 1 (sNS1), secreted viral biomarker. sNS1 was detected using an Elisa test (commercially available). FIG. 4 (middle plot) is an ED50 curve for CA based on the detection of secreted Non-Structural protein 1 (sNS1), secreted viral biomarker. sNS1 was detected using an Elisa test (commercially available).
Bottom: ED50 curve for CA based on the detection of secreted infectious virus particles, as viral biomarker. Titer of the infectious virus particles (Plaque forming units) determined using plaque assays.

The test system of series [4] is human coronavirus 229E (HCoV-229E). Nature of the series: HCoV-229E intracellular viral dsRNA assay in Huh-7 cells. As to conditions: Huh-7, 48 h. Format: cell-based. As to the method: An IF-based assay was used to monitor viral dsRNA in infected cells.
CA pre-treatment: Cladoniamide A was added to non-infected Huh-7 cells (3 h). Cells were washed with PBS and inoculated with human coronavirus 229E (HCoV-229E) for 3 hours, then HCoV-229E was removed and the cells were washed with PBS once more. 48 hours post-infection, the cells were fixed and the intra-cellular viral dsRNA was quantified (HCS CX5 system). CA added post-infection: Huh-7 cells were inoculated with HCoV-229E for 3 hours. Then HCoV-229E was removed and cells were washed with PBS. Cladoniamide A was added to these infected cells. 48 hours post-infection, the cells were fixed and the intra-cellular viral dsRNA was quantified (HCS CX5 system).

Series [5] has as its system ZIKV. Nature of the series: NS1 and dsRNA in ZIKV-infected brain organoids. Format: cell-based, Zika virus. The note with it: 10 μM, 69 hours, MOI 1. As to the method:
FIG. 17 is a schematic showing the general method 20 used in Example 6. Referring to FIG. 17, following growth of the brain organoids in STEMdiff™ media 22 (4 organoids/well), the media was aspirated 24. Then, 500 μL ZIKV at the desired MOI in fresh media was added 26 and the brain organoids incubated at 37° C. for 3 hours with gentle shaking 28. The brain organoids were then washed with 2×1 mL PBS 30, and fresh media and CA or cladoniamide C (CC) added to the desired concentration 32 prior to incubation for the desired time at 37° C. 34. The supernatant was collected and frozen at −86° C. 36 prior to analysis and the brain organoids transferred to an Eppendorf with paraformaldehyde for electron microscopy 38.
as §1

Another series relates to DENV-2, DENV-3, DENV-4. In words: DENV-2, -3, -4 dsRNA imaging in Huh7.5.1 and U87 cells. It counts as cell-based, dengue virus. As to conditions: Huh 7.5.1 cells and U87 cells, FIG. 9. As to the method:
Cultured Huh7.5.1 cells (left plots) or U87 cells (right plots) were treated with the indicated concentrations of CA (1=Mock, 2=0 M, 3=1 M, 4=5 M, 5=10 M, 6=20 µM) or PF-429242 (7=15 M) for 1 h before being washed with PBS and infected with DENV-2, DENV-3, or DENV-4 at MOI 1.0 for 48 h. Cells were labeled for viral dsRNA with […] then imaged and quantified using the Cellomics ArrayScan™ VTI.

The subject of series [6] is ZIKV. Nature of the series: ZIKV infectivity by semisolid overlay plaque assay after pre-treatment of A549 and U87 MG cells. The note with it: for reduction in ZIKV titer: CA 250 nM 1 h pre-treatment, MOI 1.0, 3 d. It counts as cell-based, Zika virus.

One molecule from US12643899B2, “Antiviral agents, uses thereof and methods for their preparation” (The University of British Columbia, priority 2020, dated 2026) can be followed below.

In the case of `COc1c2n(c3ccccc13)[C@]1(O)C(=O)N(C)C(=O)[C@]1(O)c1c-2[nH]c2ccc(Cl)cc12` [CA, (11S,15R)-7-chloro-11,15-dihydroxy-23-methoxy-13-methyl-3,13,16-triazahexacyclo[14.7.0.0^2,10.0^4,9.0^11,15.0^17,22]tricosa-1(23),2(10),4(9),5,7,17,19,21-octaene-12,14-dione], in the series with ZIKV replicon, the ZIKV replication inhibition entry is reported as “not a ZIKV replication inhibitor”. In addition, the “step of ZIKV infection inhibited” value in the series on ZIKV [1] is “dual inhibitor of ZIKV infection targeting the entry and maturation steps”. In the series with brain organoids, the “toxicity to brain organoids” value is recorded as “not toxic”. The “activity against ZIKV (viral dsRNA)” value in the series on ZIKV [2] is listed as “good activity”. The concentration for half-maximal inhibition (IC50) with ZIKV [3] is 110 nM. The same molecule gave an EC50 in series [4] of 15 nM. Further, the “anti-ZIKV activity in brain organoids (NS1, dsRNA)” value with ZIKV [5] is given as “showed anti-ZIKV activity”. In addition, in the series with DENV-2, DENV-3, DENV-4, the “activity against Dengue virus 2, 3 and 4” value is “broad-spectrum anti-flaviviral activity”. Besides, the “reduction in ZIKV titer” value in the series with ZIKV [6] (A549 cells) and in the series with ZIKV [6] (U87 MG cells) was “greater than 4 log” in each case. In the series with ZIKV [6] (at 50 nm (so in the source), FIG. 3), the “inhibition of production of infectious ZIKV virions” value was “dramatically inhibited”.
